# Tests used:
# [1] = test system: mouse ear edema (Phorbol 12-myristate 13-acetate, PMA); assay: Inhibition of PMA-induced inflammation (edema) of the mouse ear; format: in vivo; conditions: PMA 2 μg/ear, 3 hours, 20 minutes
# Description: Inhibition of Inflammation (Edema) of the Mouse Ear
# Compounds 1 and 1R were topically applied in acetone to the inside pinnae of the ears of mice in a solution containing the edema-causing irritant, Phorbol 12-myristate 13-acetate (PMA). […] After 3 hours, 20 minutes incubation, the mice were sacrificed, the ears removed and bores taken and weighed. Edema was measured by subtracting the weight of the right ear (acetone control) from the weight of the left ear (treated). Results are recorded as % decrease (inhibition)or % increase (potentiation) in edema relative to the PMA control group edema.
# Solubility = format: physicochemical; conditions: after mild reduction (e.g., ascorbic acid)
# myeloperoxidase (MPO) = assay: Myeloperoxidase (MPO) enzyme assay in ear biopsies from treated mice; format: in vivo, mouse; conditions: pooled ear bores
# Excerpt: Myeloperoxidase (MPO) Enzyme Assay
# The neutrophil-specific marker released from primary granules, myeloperoxidase (MPO), in ear biopsies from treated and untreated mouse ears was extracted and quantitated according to a modified method of Bradley, P. O., Priebat, D. A., Christensen, R. D. and Rothstein, G., "Measurement of cutaneous inflammation estimation of neutrophil content with an enzyme marker," J. Invest Dermatology 78: 206-209, 1982. This enzyme is indicative of the extravasation of pro-inflammation neutrophils from blood into the skin. Ear bores from each treatment group from mouse ear edema assays were pooled and homogenized in 80 mM sodium phosphate buffer (pH 5.4) containing 0.5% hexadecyltrimethylammonium bromide in a siliconized glass test tube for 1 min. at 0° C. using a Brinkman Polytron. The mixtures were centrifuged at 10,000×g at 4° C. for 30 min. Samples (10 μl) from each group were then assayed in a 96-well microtiter plate. The assay was initiated by adding 250 μl of o-dianisi-dine/phosphate reagent (0.28 mg of dianisidine added to 1 ml of 50 mM sodium phosphate containing […]) to each well. After a 30 minutes incubation of 37° C., the plates were read at 450 nm on a Molecular Devices microplate reader. Diluted control biopsies were utilized to develop a standard curve. Optical density values from drug-treated groups were compared to control groups to determine % of control values of enzyme activity.
smiles,measurement,setting,value
O=C1C(=Cc2ccc(O)cc2)c2[nH]c3ccccc3c2C1=C1C(=O)C(=Cc2ccc(O)cc2)C2=Nc3ccccc3C21 (centres unmarked) [Compound 1R],Dose Response Inhibition of Mouse Ear Edema,[1]; topical dose 1 ug/ear,22%
same,Dose Response Inhibition of Mouse Ear Edema,[1]; topical dose 5 ug/ear,17%
same,Dose Response Inhibition of Mouse Ear Edema,[1]; topical dose 10 ug/ear,49%
same,Dose Response Inhibition of Mouse Ear Edema,[1]; topical dose 50 ug/ear,94%
same,Inhibition of Mouse Ear Edema,[1]; topical dose 50 ug/ml (so in the source),94%
same,Dose Response Inhibition of Mouse Ear Edema,[1]; topical dose 100 ug/ear,95%
same,Solubility properties relative to Compound 1,Solubility,slightly improved solubility properties
same,"MPO Enzyme Activity, % of Control",myeloperoxidase (MPO); dose 1 ug/ear,81%
same,"MPO Enzyme Activity, % of Control",myeloperoxidase (MPO); dose 5 ug/ear,82%
same,"MPO Enzyme Activity, % of Control",myeloperoxidase (MPO); dose 10 ug/ear,32%
same,"MPO Enzyme Activity, % of Control",myeloperoxidase (MPO); dose 100 ug/ear,10%

# Reference: US5498405A, “Indole alkaloids useful as UV protective and anti-inflammatory agents” (The Regents of the University of California, priority 1995, dated 1996)
